# Assay results as given in patent publication US7396830B2, “Piperazine amidines as antiviral agents” (priority 2005, dated 2008).
# Tested on: HIV-1
# Test: Single-round infectious HIV-1 luciferase reporter virus infection of HeLa CD4 cells
# Type: cell-based
# Conditions: Human immunodeficiency virus 1, HeLa, 72 h, read-out: EC50 Group from Table 1
# Procedure: • Virus production—Human embryonic Kidney cell line, 293T, was propagated in Dulbecco's Modified Eagle Medium (Invitrogen, Carlsbad, Calif.) containing 10% fetal Bovine serum (FBS, Sigma, St. Louis, Mo.). • Virus infection—Human epithelial cell line, HeLa, expressing the HIV-1 receptor CD4 was propagated in Dulbecco's Modified Eagle Medium (Invitrogen, Carlsbad, Calif.) containing 10% fetal Bovine serum (FBS, Sigma, St. Louis , Mo.) and supplemented with 0.2 mg/mL Geneticin (Invitrogen, Carlsbad, Calif.). Virus-Single-round infectious reporter virus was produced by co-transfecting human embryonic Kidney 293 cells with an HIV-1 envelope DNA expression vector and a proviral cDNA containing an envelope deletion mutation and the luciferase reporter gene inserted in place of HIV-1 nef sequences (Chen et al, Ref. 41). Transfections were performed using lipofectAMINE PLUS reagent as described by the manufacturer (Invitrogen, Carlsbad, Calif.). Experiment • 1. HeLa CD4 cells were plated in 96 well plates at a cell density of 1×10^4 cells per well in 100 μl Dulbecco's Modified Eagle Medium containing 10% fetal Bovine serum and incubated overnight. • 2. Compound was added in a 2 μl dimethylsulfoxide solution, so that the final assay concentration would be ≦10 μM. • 3. 100 μl of single-round infectious reporter virus in Dulbecco's Modified Eagle Medium was then added to the plated cells and compound at an approximate multiplicity of infection (MOI) of 0.01, resulting in a final volume of 200 μl per well. • 4. Virally-infected cells were incubated at 37 degrees Celsius, in a CO2 incubator, and harvested 72 h after infection. • 5. Viral infection was monitored by measuring luciferase expression from viral DNA in the infected cells using a luciferase reporter gene assay kit, as described by the manufacturer (Roche Molecular Biochemicals, Indianapolis, Ind.). Infected cell supernatants were removed and 50 μl of lysis buffer was added per well. After 15 minutes, 50 μl of freshly-reconstituted luciferase assay reagent was added per well. Luciferase activity was then quantified by measuring luminescence using a Wallac microbeta scintillation counter. • 6. The percent inhibition for each compound was calculated by quantifying the level of luciferase expression in cells infected in the presence of each compound as a percentage of that observed for cells infected in the absence of compound and subtracting such a determined value from 100. • 7. An EC50 provides a method for comparing the antiviral potency of the compounds of this disclosure. The effective concentration for fifty percent inhibition (EC50) was calculated with the Microsoft Excel Xlfit curve fitting software. For each compound, curves were generated from percent inhibition calculated at 10 different concentrations by using a four paramenter logistic model (model 205). Table 1 is the key for the data in Table 2. Results
compound,measurement,value
COc1cnc(-c2cnccn2)c2[nH]cc(C(=O)C(=O)N3CCN(C(=N)c4ccccc4)C[C@@H]3C)c12 [AM-72],EC50,< 0.5 µM
